The source of these data is patent US20230081390A1, “INHIBITORS OF RAF KINASES” (Kinnate Biopharma Inc., priority 2019, published 2023).

The experiment has as its target human RAF1 (Homo sapiens, UniProt P04049). Description: Protein kinase assay (33P-ATP filter binding), human RAF1, 10-dose IC50. It is filed as biochemical. Particulars: MEK1 (K97R) substrate 3 micromolar, ATP 10 micromolar, read-out: RAF-1 IC50. The method, then: In brief, for each reaction, kinase and substrate were mixed in a buffer containing 20 mM HEPES (pH 7.5), 10 mM MgCl2, 1 mM EGTA, 0.02% Brij35, 0.02 mg/mL BSA, 0.1 mM Na3VO4, 2 mM DTT, and […]. All compounds were solubilized in DMSO. Compounds were then added to each reaction mixture via acoustic dispense using an ECHO 550 nanoliter dispenser. For human RAF1 testing, human MEK1 (K97R) was used as a substrate at a concentration of 3 micromolar, with a final ATP concentration of 10 micromolar. […] Reactions were carried out at room temperature for 2 hr and spotted onto P81 ion exchange cellulose chromatography paper (Reaction Biology). […] The percent remaining kinase activity relative to a vehicle-containing (DMSO) kinase reaction was calculated for each kinase/inhibitor pair. IC50 values were calculated using Prism 5 (GraphPad).

Bounds are passed on as bounds.

human RAF1, sequence (P04049 whole entry): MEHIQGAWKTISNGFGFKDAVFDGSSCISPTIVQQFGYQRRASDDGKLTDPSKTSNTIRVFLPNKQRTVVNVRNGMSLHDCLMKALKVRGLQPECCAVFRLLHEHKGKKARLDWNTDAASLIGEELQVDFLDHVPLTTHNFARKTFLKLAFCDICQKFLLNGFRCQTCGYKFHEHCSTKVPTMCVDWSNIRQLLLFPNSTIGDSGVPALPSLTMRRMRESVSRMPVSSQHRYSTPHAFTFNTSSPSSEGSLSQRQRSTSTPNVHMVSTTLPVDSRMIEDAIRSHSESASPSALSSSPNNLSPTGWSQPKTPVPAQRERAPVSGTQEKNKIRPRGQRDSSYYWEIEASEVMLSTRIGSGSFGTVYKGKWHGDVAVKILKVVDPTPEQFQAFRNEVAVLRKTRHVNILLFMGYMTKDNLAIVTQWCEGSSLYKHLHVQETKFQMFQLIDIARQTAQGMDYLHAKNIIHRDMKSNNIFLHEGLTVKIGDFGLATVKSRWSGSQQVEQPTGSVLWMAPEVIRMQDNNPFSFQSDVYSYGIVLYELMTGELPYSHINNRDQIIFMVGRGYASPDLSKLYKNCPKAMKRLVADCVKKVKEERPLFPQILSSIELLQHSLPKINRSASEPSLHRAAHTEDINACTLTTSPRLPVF

As to `CC(C#N)=C1CCN(C(=O)Nc2cc(-c3cc(OCCO)nc(N4CCOCC4)c3)c(C)cc2F)C1` (stereo in doubt) [Example 97, (3E)-3-(1-cyanoethylidene)-N-[2-fluoro-5-[2-(2-hydroxyethoxy)-6-(morpholin-4-yl)pyridin-4-yl]-4-methylphenyl]pyrrolidine-1-carboxamide], the IC50 is under 0.01 µM.
For the molecule `Cc1ccc(NC(=O)N2CC[C@H](OC(F)(F)F)C2)cc1-c1cc(OCC(C)O)nc(N2CCOCC2)c1` (stereo in doubt) [Example 152, (3S)-N-(3-[2-[(2R)-2-hydroxypropoxy]-6-(morpholin-4-yl)pyridin-4-yl]-4-methylphenyl)-3-(trifluoromethoxy)pyrrolidine-1-carboxamide], the concentration for half-maximal inhibition (IC50) is under 0.01 µM.
On to `Cc1ccc(NC(=O)N2CC[C@H](OC(F)(F)F)C2)cc1-c1cc(OC(C)CO)nc(N2CCOCC2)c1` (stereo in doubt) [Example 153, (3S)-N-[3-(2-[[(2R)-1-hydroxypropan-2-yl]oxy]-6-(morpholin-4-yl)pyridin-4-yl)-4-methylphenyl]-3-(trifluoromethoxy)pyrrolidine-1-carboxamide], for which the IC50 was under 0.01 µM.
For `Cc1cc(F)c(NC(=O)N2CC[C@@H](C(F)(F)F)C2)cc1-c1cnc(OCCO)c(N2CCOCC2)c1` [Example 12], the half-maximal inhibitory concentration (IC50) is under 0.01 µM.
For the molecule `Cc1cc(F)c(NC(=O)N2CC[C@H](C(F)(F)F)C2)cc1-c1cnc(OCCO)c(N2CCOCC2)c1` [Example 13, (3S)-N-[2-fluoro-5-[6-(2-hydroxyethoxy)-5-(morpholin-4-yl)pyridin-3-yl]-4-methylphenyl]-3-(trifluoromethyl)pyrrolidine-1-carboxamide], the IC50 is under 0.01 µM.
The result for `Cc1cc(F)c(NC(=O)N2CCC3(CC3)C2)cc1-c1cc(OCCO)nc(N2CCOCC2)c1` [Example 18, N-[2-fluoro-5-[2-(2-hydroxyethoxy)-6-(morpholin-4-yl)pyridin-4-yl]-4-methylphenyl]-5-azaspiro[2.4]heptane-5-carboxamide] reads under 0.01 µM.
Then `Cc1cc(F)c(NC(=O)N2CCC(C)(C)C2)cc1-c1cc(OCCO)nc(N2CCOCC2)c1` [Example 19, N-[2-fluoro-5-[2-(2-hydroxyethoxy)-6-(morpholin-4-yl)pyridin-4-yl]-4-methylphenyl]-3,3-dimethylpyrrolidine-1-carboxamide], with under 0.01 µM; and `Cc1cc(F)c(NC(=O)N2CCC(F)(F)CC2)cc1-c1cc(OCCO)nc(N2CCOCC2)c1` [Example 20, 4,4-difluoro-N-[2-fluoro-5-[2-(2-hydroxyethoxy)-6-(morpholin-4-yl)pyridin-4-yl]-4-methylphenyl]piperidine-1-carboxamide], with 0.01 to 0.1 µM.
Take `Cc1cc(F)c(NC(=O)N2CC(C(F)F)C2)cc1-c1cc(OCCO)nc(N2CCOCC2)c1` [Example 21, 3-(difluoromethyl)-N-[2-fluoro-5-[2-(2-hydroxyethoxy)-6-(morpholin-4-yl)pyridin-4-yl]-4-methylphenyl]azetidine-1-carboxamide]: the IC50 lay within 0.01 to 0.1 µM.
Then `Cc1cc(F)c(NC(=O)N2CC(F)(F)C(F)(F)C2)cc1-c1cc(OCCO)nc(N2CCOCC2)c1` [Example 22, 3,3,4,4-tetrafluoro-N-[2-fluoro-5-[2-(2-hydroxyethoxy)-6-(morpholin-4-yl)pyridin-4-yl]-4-methylphenyl]pyrrolidine-1-carboxamide], with under 0.01 µM; and `Cc1cc(F)c(NC(=O)N2CCCC(F)(F)C2)cc1-c1cc(OCCO)nc(N2CCOCC2)c1` [Example 24, 3,3-difluroo-N-(2-fluoro-5-(2-(2-hydroxyethoxy)-6-morpholinopyridin-4-yl)-4-methylphenyl)piperidine-1-carboxamide], with 0.01 to 0.1 µM; and `Cc1cc(F)c(NC(=O)N2CCCC(O)(C(F)(F)F)C2)cc1-c1cc(OCCO)nc(N2CCOCC2)c1` (stereo not drawn) [Example 25, N-(2-fluoro-5-(2-(2-hydroxyethoxy)-6-morpholinopyridin-4-yl)-4-methylphenyl)-3-hydroxy-3-(trifluoromethyl)piperidine-1-carboxamide], with 0.01 to 0.1 µM.
The result for `Cc1cc(F)c(NC(=O)N2CCC3(CCC3)C2)cc1-c1cc(OCCO)nc(N2CCOCC2)c1` [Example 26, N-[2-fluoro-5-[2-(2-hydroxyethoxy)-6-(morpholin-4-yl)pyridin-4-yl]-4-methylphenyl]-6-azaspiro[3.4]octane-6-carboxamide] reads under 0.01 µM.
In the case of `Cc1cc(F)c(NC(=O)N2CCCC3(COC3)C2)cc1-c1cc(OCCO)nc(N2CCOCC2)c1` [Example 27, N-[2-fluoro-5-[2-(2-hydroxyethoxy)-6-(morpholin-4-yl)pyridin-4-yl]-4-methylphenyl]-2-oxa-6-azaspiro[3.5]nonane-6-carboxamide], the IC50 fell in the range of 0.01 to 0.1 µM.
For the molecule `Cc1cc(F)c(NC(=O)N2CC3C(C2)C3(F)F)cc1-c1cc(OCCO)nc(N2CCOCC2)c1` (stereo not drawn) [Example 28, 6,6-difluoro-N-[2-fluoro-5-[2-(2-hydroxyethoxy)-6-(morpholin-4-yl)pyridin-4-yl]-4-mehtylphenyl]-3-azabicyclo[3.1.0]hexane-3-carboxamide], the IC50 was in the range of 0.01 to 0.1 µM.
Turning to `Cc1cc(F)c(NC(=O)NCC(F)(F)C(F)(F)F)cc1-c1cc(OCCO)nc(N2CCOCC2)c1` [Example 35, 1-[2-fluoro-5-[2-(2-hydroxyethoxy)-6-(morpholin-4-yl)pyridin-4-yl]-4-methylphenyl]-3-(2,2,3,3,3-pentafluoropropyl)urea], the 50% inhibitory concentration (IC50) was under 0.01 µM.
The result for `Cc1cc(F)c(NC(=O)N2CC[C@H](CC(F)(F)F)C2)cc1-c1cc(OCCO)nc(N2CCOCC2)c1` [Example 36, (3R)-N-[2-fluoro-5-[2-(2-hydroxyethoxy)-6-(morpholin-4-yl)pyridin-4-yl]-4-methylphenyl]-3-(2,2,2-trifluoroethyl)pyrrolidine-1-carboxamide] reads under 0.01 µM; that for `Cc1cc(F)c(NC(=O)N2CCCC3(CCC3)C2)cc1-c1cc(OCCO)nc(N2CCOCC2)c1` [Example 38, N-[2-fluoro-5-[2-(2-hydroxyethoxy)-6-(morpholin-4-yl)pyridin-4-yl]-4-methylphenyl]-6-azaspiro[3.5]nonane-6-carboxamide], under 0.01 µM; that for `Cc1cc(F)c(NC(=O)N2C[C@@H](N)C[C@@H](C(F)(F)F)C2)cc1-c1cc(OCCO)nc(N2CCOCC2)c1` [Example 40, (3S,5R)-3-amino-N-[2-fluoro-5-[2-(2-hydroxyethoxy)-6-(morpholin-4-yl)pyridin-4-yl]-4-methylphenyl]-5-(trifluoromethyl)piperidine-1-carboxamide], under 0.01 µM.
Turning to `Cc1cc(F)c(NC(=O)N2CCC3(COC3)C2)cc1-c1cc(OCCO)nc(N2CCOCC2)c1` [Example 41, N-[2-fluoro-5-[2-(2-hydroxyethoxy)-6-(morpholin-4-yl)pyridin-4-yl]-4-methylphenyl]-2-oxa-6-azaspiro[3.4]octane-6-carboxamide], the IC50 was 0.01 to 0.1 µM.
Take `COC1(C(F)(F)F)CCCN(C(=O)Nc2cc(-c3cc(OCCO)nc(N4CCOCC4)c3)c(C)cc2F)C1` (stereo not drawn) [Example 42, N-[2-fluoro-5-[2-(2-hydroxyethoxy)-6-(morpholin-4-yl)pyridin-4-yl]-4-methylphenyl]-3-methoxy-3-(trifluoromethyl)piperidine-1-carboxamide]: the IC50 was under 0.01 µM.
Take `Cc1cc(F)c(NC(=O)NC2CC2C(F)(F)F)cc1-c1cc(OCCO)nc(N2CCOCC2)c1` (stereo not drawn) [Example 43, 1-[2-fluoro-5-[2-(2-hydroxyethoxy)-6-(morpholin-4-yl)pyridin-4-yl]-4-methylphenyl]-3-[2-(trifluoromethyl)cyclopropyl]urea]: the half-inhibitory concentration (IC50) was under 0.01 µM.
Regarding `Cc1cc(F)c(NC(=O)N2C[C@@H](O)C[C@@H](C(F)(F)F)C2)cc1-c1cc(OCCO)nc(N2CCOCC2)c1` [Example 44, (3S,5R)-N-[2-fluoro-5-[2-(2-hydroxyethoxy)-6-(morpholin-4-yl)pyridin-4-yl]-4-methylphenyl]-3-hydroxy-5-(trifluoromethyl) piperidine-1-carboxamide], the IC50 is under 0.01 µM.
The result for `Cc1cc(F)c(NC(=O)N2CCC(CF)(C(F)(F)F)C2)cc1-c1cc(OCCO)nc(N2CCOCC2)c1` (stereo not drawn) [Example 45, N-[2-fluoro-5-[2-(2-hydroxyethoxy)-6-(morpholin-4-yl)pyridin-4-yl]-4-methylphenyl]-3-(fluoromethyl)-3-(trifluoromethyl)pyrrolidine-1-carboxamide] reads under 0.01 µM.
The result for `Cc1cc(F)c(NC(=O)N2CCCCC(F)(F)C2)cc1-c1cc(OCCO)nc(N2CCOCC2)c1` [Example 46, 3,3-difluoro-N-[2-fluoro-5-[2-(2-hydroxyethoxy)-6-(morpholin-4-yl)pyridin-4-yl]-4-methylphenyl]azepane-1-carboxamide] reads 0.01 to 0.1 µM; that for `Cc1cc(F)c(NC(=O)NCC2(C(F)(F)F)CCC2)cc1-c1cc(OCCO)nc(N2CCOCC2)c1` [Example 49, 1-[2-fluoro-5-[2-(2-hydroxyethoxy)-6-(morpholin-4-yl)pyridin-4-yl]-4-methylphenyl]-3-[[1-(trifluoromethyl)cyclobutyl]methyl]urea], under 0.01 µM; that for `Cc1cc(F)c(NC(=O)N2CCCC(N)(C(F)(F)F)C2)cc1-c1cc(OCCO)nc(N2CCOCC2)c1` (stereo not drawn) [Example 54, 3-amino-N-[2-fluoro-5-[2-(2-hydroxyethoxy)-6-(morpholin-4-yl)pyridin-4-yl]-4-methylphenyl]-3-(trifluoromethyl)piperiidne-1-carboxamide], under 0.01 µM.
